The values below come from paper PMC12434071, “Platinum-group metal half-sandwich complexes of 1-(α-D-glucopyranosyl)-4-hetaryl-1,2,3-triazoles: synthesis, solution equilibrium studies, and investigation of their anticancer and antimicrobial activities” (Frontiers in Chemistry, 2025).

Common to all, as to format: cell-based
The subject of experiment [1] is ID8 cells. The experiment in a line: MTT reduction assay on ID8 cells. The note with it: maximal inhibition; 4 h treatment; maximum concentration 100 µM. As for the experimental part:
FIGURE 5 The ruthenium, osmium, and iridium complexes of ligands 4a, 4b, and 5a decrease MTT reduction. For MTT assays, 4 × 10^3 A2780 cells, 3 × 10^3 ID8 cells, or 6 × 10^3 human primary fibroblasts were plated into 96-well plates. Cells were treated with the compounds in the concentrations indicated for 4 h. Data are represented as average ± SD, from four biological replicates on A2780, and from three biological replicates on ID8 and human primary fibroblasts. For the datasets of 5a and Os-5a on human primary fibroblasts, the data represent four biological replicates. Individual assays were performed in duplicate. Values were normalized for vehicle-treated cells, and the absorbance for vehicle-treated cells equals 1. Normality was assessed using the D'Agostino-Pearson test. Statistical significance was assessed using a two-way ANOVA test followed by Tukey's post hoc test. For better visibility, normality, transformations, statistical tests, and p values are presented in an MS Excel sheet at https://figshare.com/s/3a0aa60b66f3f746f41e. Color code: black-free ligand (4a,b or 5a), khaki-ruthenium complex (Ru-4a,b), green-iridium complex (Ir-4a,b), blue-osmium complex (Os-4a,b or Os-5a), and red-rhodium complex (Rh-4a,b). An MTT reduction assay measures the activity of mitochondrial complex I and can be used to detect toxicity ([[…] et al., 2016]). The assay was performed in a manner similar to that described by [[…] et al. (2023b)]. Briefly, cells were plated into 96-well plates the day before the assay. Cells were treated with the compounds for 4 h; then, MTT was added to a 0.5 mg/mL final concentration, and cells were incubated at 37°C in a cell incubator for 40-60 min, as a function of the cell line being assessed. The culture medium was removed, the reduced MTT dye was dissolved in dimethylsulfoxide, and plates were measured in a plate photometer (Thermo Scientific Multiscan GO spectrophotometer, Waltham, MA, United States) at 540 nm. […] In calculations, the readings for these wells were considered to 1, and all readings were expressed relative to these values. […]

Experiment [2] deals with ID8 cells. Kind of experiment: SRB assay on ID8 cells. The note with it: maximal inhibition; 48 h treatment; maximum concentration 100 µM. As for the experimental part: (§1) FIGURE 7 The ruthenium, osmium, and iridium complexes of ligands 4a, 4b, and 5a are cytostatic on ovarian cancer models with a good therapeutic index. For SRB assays, 1.5 × 10^3 A2780 cells, 1.5 × 10^3 ID8 cells, or 4 × 10^3 primary fibroblasts were plated into 96-well plates. Cells were treated with the compounds in the concentrations indicated for 48 h. Data are represented as average ± SD, from four biological replicates on A2780 and human primary fibroblasts, except in the case of Os complexes, where experiments were performed in three biological replicates. ID8 cells were assessed in three biological replicates. Individual assays were performed in duplicate. Values were normalized for vehicle-treated cells, and the absorbance for vehicle-treated cells equals 1. Normality was assessed using the D’Agostino–Pearson test. Statistical significance was assessed using a two-way ANOVA test followed by Tukey’s post hoc test. For better visibility, normality, transformations, statistical tests, and p values are presented in an MS Excel sheet at https://figshare.com/s/3a0aa60b66f3f746f41e. Color code: black—free ligand (4a,b or 5a), khaki—ruthenium complex (Ru-4a,b), blue—osmium complex (Os-4a,b or Os-5a), green—iridium complex (Ir-4a,b), and red—rhodium complex (Rh-4a,b). An SRB assay measures protein content of cells in correlation with the cell number in an assay well and can therefore be used to assess cell proliferation or long-term cytostasis ([Skehan et al., 1990]). Cells were seeded into 96-well plates the day before the treatment for the assay. Cells were treated with the various compounds for 48 h. Then, the medium was removed, and cells were fixed with 10% trichloroacetic acid. Fixed cells were washed in distilled water three times, followed by staining with SRB (0.4 m/V% dissolved in 1% acetic acid) for 10 min. Stained cells were washed in 1% acetic acid five times; the acetic acid was removed, and the cells were left to dry. […] Plates were measured in a plate photometer (Thermo Scientific Multiscan GO spectrophotometer, Waltham, MA, United States) at 540 nm. […]
Background: The SRB assay estimates cell density from bound dye.

In experiment [3] the test system is human primary dermal fibroblasts. Kind of experiment: SRB assay on human primary dermal fibroblasts. The settings on record: maximal inhibition; 48 h treatment; maximum concentration 100 µM. As for the experimental part: as §1

Regarding `O=C(OC[C@H]1O[C@H](n2cc(-c3ccccn3)nn2)[C@H](OC(=O)c2ccccc2)[C@@H](OC(=O)c2ccccc2)[C@@H]1OC(=O)c1ccccc1)c1ccccc1` [Complex 4a, 1-(2’,3’,4’,6’-Tetra-O-benzoyl-α-D-glucopyranosyl)-4-(pyridin-2-yl)-1,2,3-triazole], in the experiment on ID8 cells [1], the “ID8 MTT max %” value is recorded as 0%. In addition, in the experiment on ID8 cells [2], the “ID8 SRB max %” value turned out to be 0%. Further, the “Fibroblast SRB max %” value in experiment [3] was 11.89%.
As to `O=C(OC[C@H]1O[C@H](n2cc(-c3ccc4ccccc4n3)nn2)[C@H](OC(=O)c2ccccc2)[C@@H](OC(=O)c2ccccc2)[C@@H]1OC(=O)c1ccccc1)c1ccccc1` [Complex 4b, 1-(2’,3’,4’,6’-Tetra-O-benzoyl-α-D-glucopyranosyl)-4-(quinolin-2-yl)-1,2,3-triazole], the “ID8 MTT max %” value in the experiment on ID8 cells [1] came out at 0%. Besides, the “ID8 SRB max %” value in the experiment on ID8 cells [2] is recorded as 0%. For the same molecule, the “Fibroblast SRB max %” value in experiment [3] is on record as 10.76%.
Turning to `CCCCC(=O)OC[C@H]1O[C@H](n2cc(-c3ccccn3)nn2)[C@H](OC(=O)CCCC)[C@@H](OC(=O)CCCC)[C@@H]1OC(=O)CCCC` [Complex 5a, 1-(2’,3’,4’,6’-Tetra-O-pentanoyl-α-D-glucopyranosyl)-4-(pyridin-2-yl)-1,2,3-triazole], the “ID8 MTT max %” value in the experiment on ID8 cells [1] is recorded as 15.89%. Also, the “ID8 SRB max %” value in the experiment with ID8 cells [2] is 0%. The “Fibroblast SRB max %” value in experiment [3] is listed as 27.97%.
